Source: patent US8192962B2, “Processes for detecting toxic substances” (Daikin Industries, Ltd., priority 2001, dated 2012)

Tested on: Metabolism protein genes
Test: DNA chip mRNA expression in yeast, metabolism protein genes (Table 7)
Type: cell-based, Saccharomyces cerevisiae S288C
Description: Yeast (Saccharomyces cerevisiae S288C (α SUC2mal mel gap2 CUP1)) were incubated at 25° C. on YPD medium (yeast extract 1%, polypepton 2%, glucose 2%). One of toxic chemical substances was added to the cells at logarithmic growth phase, and the cells were further incubated for two hours. Cells were cultured without any chemical substance in the same condition, and were used as control. Concentrations of the chemical substances were defined to inhibit the growth of the yeast but not lead to death.
After completion of the incubation, the culture was centrifuged to collect the cells. To the cells, sodium acetate buffer (50 mM sodium acetate, 10 mM EDTA, 1% SDS) was added, and the mixture was shaken at 65° C. for five minutes, followed by returning to room temperature, and obtaining the supernatant, of which the procedures were repeated two times. To the supernatant, ½ amount of a solution of phenol/chloroform was added, and the mixture was centrifuged to give a supernatant, which was added with an equal amount of chloroform, and the mixture was centrifuged to give a supernatant. To the supernatant, an equal amount of isopropanol containing 0.3 M sodium acetate was added, and the mixture was allowed to stand at room temperature for 30 minutes, after which the mixture was centrifuged to give a sediment of the whole RNAs. Seventy % ethanol was added to the sediment, and the mixture was again centrifuged to give a sediment, which was then dried and dissolved in water. mRNA was isolated from the whole RNAs as followings. In view of the fact that a poly A chain is attached to the 3′ terminus of mRNA, a polynucleotide having a poly T structure which was immobilized on the surface of latex beads was used to trap the mRNA, and then the mRNA was washed and eluted with spine column (Oligotex-dT30<Super>mRNA Purification Kit, Takara). Reverse transcription of the mRNA was conducted with a reverse transcriptase (Super Script II Reverse Transcriptase; catalogue No. 18064-014, GibcoBRL) using fluorescence-labeled nucleotides to give cDNAs that were introduced with Cy3-dUTP or Cy5-dUTP during the reverse transcription.
The labeled cDNAs were dissolved in TE buffer (10mM Tris-HCl/1 mM EDTA, pH8.0), and the solution was dropped on the DNA chip containing the whole genes of yeast (DNA Chip Research Inc. Japan) so that the cDNAs were hybridized on the DNA chip at 65° C. for over 12 hours. The fluoresces intensity of the DNA chip was read with a scanner, and the ratio relative to the fluorescence intensity resulting from the absence of chemical substance was estimated as the following, which is shown in Tables 1 to 9: […]

Question: `Oc1cc(Cl)c(Cl)cc1Cl` [(6), 2,4,5-trichlorophenol] was tested. Which “The level of expressed mRNA in the presence of chemical substance/The level of expressed mRNA in the absence of chemical substance” value (yeast gene YFL056C) did it give?
Answer: Its value is 0.6.

Question: And the “The level of expressed mRNA in the presence of chemical substance/The level of expressed mRNA in the absence of chemical substance” value (yeast gene YFL057C)?
Answer: The value was 1.2.

Question: And the “The level of expressed mRNA in the presence of chemical substance/The level of expressed mRNA in the absence of chemical substance” value (yeast gene YFR047C)?
Answer: The value was 2.0.

Question: And the “level of expressed mRNA in the presence/in the absence of chemical substance” value (yeast gene YGL012W)?
Answer: Its value is 1.6.

Question: And the “The level of expressed mRNA in the presence of chemical substance/The level of expressed mRNA in the absence of chemical substance” value (yeast gene YGL022W)?
Answer: The value was 0.9.

Question: And the “level of expressed mRNA in the presence/in the absence of chemical substance” value (yeast gene YGL115W)?
Answer: Its value is 1.2.

Question: What about the “The level of expressed mRNA in the presence of chemical substance/The level of expressed mRNA in the absence of chemical substance” value (yeast gene YGL126W) of the same molecule?
Answer: The value was 1.6.

Question: What about the “level of expressed mRNA in the presence/in the absence of chemical substance” value (yeast gene YGL205W) of the same molecule?
Answer: The value was 1.6.

Question: What about the “The level of expressed mRNA in the presence of chemical substance/The level of expressed mRNA in the absence of chemical substance” value (yeast gene YGL209W) of the same molecule?
Answer: Its value is 1.0.

Question: And the “The level of expressed mRNA in the presence of chemical substance/The level of expressed mRNA in the absence of chemical substance” value (yeast gene YGL248W)?
Answer: Its value is 2.7.

Question: And the “The level of expressed mRNA in the presence of chemical substance/The level of expressed mRNA in the absence of chemical substance” value (yeast gene YGL253W)?
Answer: The value was 2.4.

Question: And the “The level of expressed mRNA in the presence of chemical substance/The level of expressed mRNA in the absence of chemical substance” value (yeast gene YGR037C)?
Answer: Its value is 1.1.

Question: What about the “The level of expressed mRNA in the presence of chemical substance/The level of expressed mRNA in the absence of chemical substance” value (yeast gene YGR055W) of the same molecule?
Answer: The value was 1.1.

Question: And the “level of expressed mRNA in the presence/in the absence of chemical substance” value (yeast gene YGR096W)?
Answer: The value was 1.7.

Question: What about the “level of expressed mRNA in the presence/in the absence of chemical substance” value (yeast gene YGR191W) of the same molecule?
Answer: The value was 1.1.

Question: What about the “The level of expressed mRNA in the presence of chemical substance/The level of expressed mRNA in the absence of chemical substance” value (yeast gene YGR194C) of the same molecule?
Answer: Its value is 1.9.

Question: What about the “level of expressed mRNA in the presence/in the absence of chemical substance” value (yeast gene YGR204W) of the same molecule?
Answer: Its value is 0.6.

Question: And the “The level of expressed mRNA in the presence of chemical substance/The level of expressed mRNA in the absence of chemical substance” value (yeast gene YGR244C)?
Answer: The value was 2.6.

Question: What about the “The level of expressed mRNA in the presence of chemical substance/The level of expressed mRNA in the absence of chemical substance” value (yeast gene YGR256W) of the same molecule?
Answer: Its value is 6.2.

Question: What about the “The level of expressed mRNA in the presence of chemical substance/The level of expressed mRNA in the absence of chemical substance” value (yeast gene YGR282C) of the same molecule?
Answer: The value was 2.2.

Question: And the “level of expressed mRNA in the presence/in the absence of chemical substance” value (yeast gene YHR025W)?
Answer: Its value is 0.8.

Question: What about the “The level of expressed mRNA in the presence of chemical substance/The level of expressed mRNA in the absence of chemical substance” value (yeast gene YHR111W) of the same molecule?
Answer: Its value is 1.3.

Question: What about the “level of expressed mRNA in the presence/in the absence of chemical substance” value (yeast gene YHR123W) of the same molecule?
Answer: Its value is 1.0.

Question: And the “The level of expressed mRNA in the presence of chemical substance/The level of expressed mRNA in the absence of chemical substance” value (yeast gene YHR137W)?
Answer: Its value is 0.7.

Question: And the “The level of expressed mRNA in the presence of chemical substance/The level of expressed mRNA in the absence of chemical substance” value (yeast gene YHR174W)?
Answer: Its value is 1.5.

Question: And the “The level of expressed mRNA in the presence of chemical substance/The level of expressed mRNA in the absence of chemical substance” value (yeast gene YHR176W)?
Answer: The value was 2.3.

Question: And the “level of expressed mRNA in the presence/in the absence of chemical substance” value (yeast gene YHR210C)?
Answer: Its value is 0.7.

Question: And the “level of expressed mRNA in the presence/in the absence of chemical substance” value (yeast gene YIL006W)?
Answer: The value was 0.3.

Question: What about the “The level of expressed mRNA in the presence of chemical substance/The level of expressed mRNA in the absence of chemical substance” value (yeast gene YIL045W) of the same molecule?
Answer: Its value is 1.7.

Question: And the “The level of expressed mRNA in the presence of chemical substance/The level of expressed mRNA in the absence of chemical substance” value (yeast gene YIL107C)?
Answer: The value was 1.0.

Question: And the “The level of expressed mRNA in the presence of chemical substance/The level of expressed mRNA in the absence of chemical substance” value (yeast gene YIL154C)?
Answer: The value was 1.1.

Question: What about the “The level of expressed mRNA in the presence of chemical substance/The level of expressed mRNA in the absence of chemical substance” value (yeast gene YIL155C) of the same molecule?
Answer: The value was 1.4.

Question: And the “The level of expressed mRNA in the presence of chemical substance/The level of expressed mRNA in the absence of chemical substance” value (yeast gene YIL167W)?
Answer: The value was 7.7.

Question: What about the “The level of expressed mRNA in the presence of chemical substance/The level of expressed mRNA in the absence of chemical substance” value (yeast gene YIR034C) of the same molecule?
Answer: The value was 1.3.

Question: And the “The level of expressed mRNA in the presence of chemical substance/The level of expressed mRNA in the absence of chemical substance” value (yeast gene YIR036C)?
Answer: The value was 0.7.

Question: What about the “The level of expressed mRNA in the presence of chemical substance/The level of expressed mRNA in the absence of chemical substance” value (yeast gene YJL031C) of the same molecule?
Answer: Its value is 1.6.

Question: And the “The level of expressed mRNA in the presence of chemical substance/The level of expressed mRNA in the absence of chemical substance” value (yeast gene YJL068C)?
Answer: Its value is 1.1.

Question: And the “The level of expressed mRNA in the presence of chemical substance/The level of expressed mRNA in the absence of chemical substance” value (yeast gene YJL088W)?
Answer: The value was 2.8.

Question: What about the “The level of expressed mRNA in the presence of chemical substance/The level of expressed mRNA in the absence of chemical substance” value (yeast gene YJL099W) of the same molecule?
Answer: The value was 2.0.

Question: And the “level of expressed mRNA in the presence/in the absence of chemical substance” value (yeast gene YJL121C)?
Answer: The value was 1.1.

Question: What about the “level of expressed mRNA in the presence/in the absence of chemical substance” value (yeast gene YJL167W) of the same molecule?
Answer: Its value is 1.3.

Question: What about the “The level of expressed mRNA in the presence of chemical substance/The level of expressed mRNA in the absence of chemical substance” value (yeast gene YJL172W) of the same molecule?
Answer: The value was 3.8.

Question: And the “The level of expressed mRNA in the presence of chemical substance/The level of expressed mRNA in the absence of chemical substance” value (yeast gene YJL219W)?
Answer: Its value is 1.5.

Question: And the “The level of expressed mRNA in the presence of chemical substance/The level of expressed mRNA in the absence of chemical substance” value (yeast gene YJL221C)?
Answer: Its value is 6.6.

Question: What about the “level of expressed mRNA in the presence/in the absence of chemical substance” value (yeast gene YJR077C) of the same molecule?
Answer: Its value is 0.9.

Question: What about the “The level of expressed mRNA in the presence of chemical substance/The level of expressed mRNA in the absence of chemical substance” value (yeast gene YJR137C) of the same molecule?
Answer: Its value is 1.5.

Question: What about the “level of expressed mRNA in the presence/in the absence of chemical substance” value (yeast gene YJR143C) of the same molecule?
Answer: Its value is 0.6.

Question: What about the “The level of expressed mRNA in the presence of chemical substance/The level of expressed mRNA in the absence of chemical substance” value (yeast gene YJR148W) of the same molecule?
Answer: Its value is 2.0.

Question: And the “The level of expressed mRNA in the presence of chemical substance/The level of expressed mRNA in the absence of chemical substance” value (yeast gene YJR155W)?
Answer: Its value is 1.4.
